Data reported in patent publication US20240199538A1, “Novel Chlorhexidine Salts and Related Compositions and Methods” (Colgate-Palmolive Company, priority 2022, published 2024).

Test: CHG and CHG-SLS mixture aging study, CHX degradation products by GC-MS
Assay type: physicochemical
Settings: aqueous 20% CHG solution, 60° C. oven
Description: Sample preparation for CHX degradation analysis by using GCMS analysis: Both aged solutions are taken from the 60° C.oven. They are diluted at 1:3.5 ratios with methanol. Both solutions are filtrated with a 0.20 um PTFE filter, respectively, then they are diluted again at a 1:10 dilution ratio with methanol and then transferred into a ROBO autosampler vials for GC-MS analysis. The gas chromatography system 6890N with 5972 MS detector plus Gerstel MPS-2 autosampler (Agilenet Technologies, Santa, Clara, CA, USA) is used for detection of CHX degradation products. Separation is accomplished using GC column of HP-5MS (30 m×0.25 mm×0.25 um, length×inside diameter×film thickness, Agilent Technologies). The 1 μL sample is injected with the splitless mode. The oven temperature is initially held at 80° C.for 1 min. Thereafter the temperature is raised at 6° C./min until 300° C.and held for 2.33 min. Total running time is 40 minutes. Helium is used as the carrier gas and delivered at a constant flow rate at 1 mL/min (the pressure at 9.38 psi and velocity at 37 cm/sec). The injector temperature is set at 250° C. and the interface temperature between GC oven and MS detector is250° C. […]

**Q.** Which “Peak integration for CHX degradation product at 3 weeks” value (3 weeks) does the source give for `N=C(NCCCCCCNC(=N)NC(=N)Nc1ccc(Cl)cc1)NC(=N)Nc1ccc(Cl)cc1.O=C(O)[C@H](O)[C@@H](O)[C@H](O)[C@H](O)CO.O=C(O)[C@H](O)[C@@H](O)[C@H](O)[C@H](O)CO` [CHG, chlorhexidine gluconate] here?
**A.** 523490

**Q.** What about the “Peak integration for CHX degradation product at 6 weeks” value (6 weeks) of the same compound?
**A.** 7560037
